Data: patent publication US20090118271A1, “Preventive or Therapeutic Agents for Pancreatic Cancer, Ovarian Cancer, or Liver Cancer Comprising a Novel Water-Soluble Prodrug” (CHUGAI SEIYAKU KABUSHIKI KAISHA, priority 2005, published 2009)

What was measured:
Assay type in all cases: in vivo
[1] = tested on: human pancreatic cancer cell line BxPC-3; assay: Antitumor effect in BxPC-3 tumor-bearing nude mice; conditions: BxPC-3 s.c. xenograft, BALB/c nude mice, 66 mg/kg/inj. (47 in terms of free base) intravenously, once a week for three weeks
Procedure: Antitumor effects were determined for representative examples of the compound groups of the present invention. Antitumor effects were determined using tumor-bearing mice generated by subcutaneous transplantation of human pancreatic cancer cell line BxPC-3 obtained from American Type Culture Collection (Virginia, USA) into the right ventral neck of BALB/c nude mice purchased from Japan Charles River.
After a seven-day quarantine period, the purchased nude mice were subjected to subcutaneous transplantation of 9×10^6 BxPC-3 cells to their right ventral neck. Mice with a tumor size reaching 400 mm^3 or so were subjected to the experiment.
(§1) The compounds were dissolved in 1 mM citric acid/physiological saline (pH3.1-3.2), and were administered intravenously. The administration was carried out once a week for three weeks, for a total of three administrations. The antitumor effect was determined as tumor growth inhibition (TGI), using the following equation.
(§2) Tumor growth inhibition (TGI) (%)={(1−amount of tumor growth in the group treated with the drug/amount of tumor growth in the control group)×100}

[2] = tested on: human pancreatic cancer cell line AsPC-1; assay: Antitumor effect in AsPC-1 tumor-bearing nude mice; conditions: AsPC-1 s.c. xenograft, BALB/c nude mice, 60 mg/kg/inj. (47 in terms of free base) intravenously, once a week for three weeks
Procedure: Antitumor effects were determined for representative examples of the compound groups of the present invention. Antitumor effects were determined using tumor-bearing mice generated by subcutaneous transplantation of human pancreatic cancer cell line AsPC-1 obtained from American Type Culture Collection (Virginia, USA) into the right ventral neck of BALB/c nude mice purchased from Japan Charles River.
After a one-week quarantine period, the purchased nude mice were subjected to subcutaneous transplantation of 4.8×10^6 AsPC-1 cells to their right ventral neck. Mice with a tumor size reaching 200 mm^3 or so were subjected to the experiment.
as §1, §2

[3] = tested on: human ovarian cancer cell line PA-1; assay: Antitumor effect in PA-1 tumor-bearing nude mice; conditions: PA-1 s.c. xenograft, BALB/c nude mice, 40 mg/kg/inj. (32 in terms of free base) intravenously, once a week for three weeks
Procedure: Antitumor effects were determined for representative examples of the compound groups of the present invention. Antitumor effects were determined using tumor-bearing mice generated by the subcutaneous transplantation of human ovarian cancer cell line PA-1 obtained from American Type Culture Collection (Virginia, USA) into the right ventral neck of BALB/c nude mice purchased from Japan Charles River.
After a one-week quarantine period, the purchased nude mice were subjected to subcutaneous transplantation of 9.8×10^6 PA-1 cells to their right ventral neck. Mice with a tumor size reaching 200 mm^3 or so were subjected to the experiment.
(§3) The compounds were dissolved in physiological saline, and were administered intravenously. The administration was carried out once a week for three weeks, for a total of three administrations. The antitumor effect was determined as tumor growth inhibition (TGI), using the following equation.
Tumor growth inhibition (TGI) (%) {(1−amount of tumor growth in the group treated with the drug/amount of tumor growth in the control group)×100}

[4] = tested on: human ovarian cancer cell line SK-OV-3; assay: Antitumor effect in SK-OV-3 tumor-bearing nude mice; conditions: SK-OV-3 s.c. xenograft, BALB/c nude mice, 60 mg/kg/inj. (47 in terms of free base) intravenously, once a week for three weeks
Procedure: Antitumor effects were determined for representative examples of the compound groups of the present invention. Antitumor effects were determined using tumor-bearing mice generated by subcutaneous transplantation of the human ovarian cancer cell line SK-OV-3 obtained from American Type Culture Collection (Virginia, USA) into the right ventral neck of BALB/c nude mice purchased from Japan Charles River.
After a six-day quarantine period, the purchased nude mice were subjected to subcutaneous transplantation of a 2-3 mm square piece of the SK-OV-3 tumor to their right ventral neck. Mice with a tumor size reaching 210 mm^3 or so were subjected to the experiment.
as §3, §2

[5] = tested on: human pancreatic cancer cell line Capan-1; assay: Antitumor effect in Capan-1 tumor-bearing nude mice; conditions: Capan-1 s.c. xenograft, BALB/c nude mice, 66 mg/kg/inj. (47 in terms of free base) intravenously, once a week for three weeks
Procedure: Antitumor effects were determined for representative examples of the compound groups of the present invention. Antitumor effects were determined using tumor-bearing mice generated by subcutaneous transplantation of human pancreatic cancer cell line Capan-1 obtained from American Type Culture Collection (Virginia, USA) into the right ventral neck of BALB/c nude mice purchased from Japan Charles River.
After a 19-day quarantine period, the purchased nude mice were subjected to subcutaneous transplantation of 10×10^6 Capan-1 cells to their right ventral neck. Mice with a tumor size reaching 260 mm^3 or so were subjected to the experiment.
as §1, §2

[6] = tested on: human liver cancer cell line PLC/PRF/5; assay: Antitumor effect in PLC/PRF/5 tumor-bearing nude mice; conditions: PLC/PRF/5 s.c. xenograft, BALB/c nude mice, 60 mg/kg/inj. (47 in terms of free base) intravenously, once a week for three weeks
Procedure: Antitumor effects were determined for representative examples of the compound groups of the present invention. Antitumor effects were determined using tumor-bearing mice generated by subcutaneous transplantation of human liver cancer cell line PLC/PRF/5 obtained from Human Science into the right ventral neck of BALB/c nude mice purchased from Japan Charles River.
After a one-week quarantine period, the purchased nude mice were subjected to subcutaneous transplantation of 20×10^6 PLC/PRF/5 cells to their right ventral neck. Mice with a tumor size reaching 200 mm^3 or so were subjected to the experiment.
as §3, §2

Compound: CCCCCN1C=Nc2cccc3nc4c(c1c23)Cn1c-4cc2c(c1=O)COC(=O)[C@@]2(CC)OC(=O)CN(C)C(=O)CN.Cl [Compound 2A, (9S)-9-Ethyl-9-(glycyl-sarcosyloxy)-1-pentyl-1H,12H-pyrano[3″,4″:6′,7′]indolizino[1′,2′:6,5]pyrido[4,3,2-de]quinazoline-10,13(9H,15H)-dione Hydrochloride]
- TGI (%) on Day 14 ([1]; Day 14): 55%
- TGI (%) on Day 21 ([1]; Day 21): 47%
- TGI (%) on Day 21 [2]: 73%
- TGI (%) on Day 21 [3]: 84%
- TGI (%) on Day 21 [4]: 52%
- TGI (%) on Day 21 [5]: 122%
- TGI (%) on Day 21 [6]: 84%
